Experimental data as given in PubChem BioAssay (NCI).
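Briefly, cells in 96-well plates were exposed to five compound concentrations for 48 h, and endpoints were estimated by linear interpolation. TGI: concentration producing complete growth inhibition.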

Assays:
Assay in all cases: NCI anticancer screen, dose series, 48 h
NCI-H522 lung = tested on: NCI-H522 lung
KM12 colon = tested on: KM12 colon
ACHN renal = tested on: ACHN renal
HCT-15 colon = tested on: HCT-15 colon
U251 CNS = tested on: U251 CNS
SK-OV-3 ovarian = tested on: SK-OV-3 ovarian
A549 NSCLC = tested on: A549 NSCLC
UACC-62 melanoma = tested on: UACC-62 melanoma
SK-MEL-28 melanoma = tested on: SK-MEL-28 melanoma
NCI-H226 lung = tested on: NCI-H226 lung
SK-MEL-2 melanoma = tested on: SK-MEL-2 melanoma
HT29 colon = tested on: HT29 colon
HL-60(TB) leukemia = tested on: HL-60(TB) leukemia
MOLT-4 leukemia = tested on: MOLT-4 leukemia
LOX IMVI melanoma = tested on: LOX IMVI melanoma
SNB-75 CNS = tested on: SNB-75 CNS
TK-10 renal = tested on: TK-10 renal
OVCAR-4 ovarian = tested on: OVCAR-4 ovarian
RXF 393 renal = tested on: RXF 393 renal
NCI-H23 lung = tested on: NCI-H23 lung

| SMILES | TGI (NCI-H522 lung) | TGI (KM12 colon) | TGI (ACHN renal) | TGI (HCT-15 colon) | TGI (U251 CNS) | TGI (SK-OV-3 ovarian) | TGI (A549 NSCLC) | TGI (UACC-62 melanoma) | TGI (SK-MEL-28 melanoma) | TGI (NCI-H226 lung) | TGI (SK-MEL-2 melanoma) | TGI (HT29 colon) | TGI (HL-60(TB) leukemia) | TGI (MOLT-4 leukemia) | TGI (LOX IMVI melanoma) | TGI (SNB-75 CNS) | TGI (TK-10 renal) | TGI (OVCAR-4 ovarian) | TGI (RXF 393 renal) | TGI (NCI-H23 lung) |
| --- | --- | --- | --- | --- | --- | --- | --- | --- | --- | --- | --- | --- | --- | --- | --- | --- | --- | --- | --- | --- |
| CC1(C)OP23(NC(=O)OC2(C(F)(F)F)c2ccccc2O3)OC1(C)C (stereo not given) | > 100 µM | > 100 µM | > 100 µM | > 100 µM | > 100 µM | > 100 µM | > 100 µM | > 100 µM | > 100 µM | > 100 µM | > 100 µM | > 100 µM | > 100 µM | > 100 µM | > 100 µM | > 100 µM | > 100 µM | > 100 µM | > 100 µM | > 100 µM |
| COc1ccc2[nH]c(C(=O)N3CC(CCl)c4ccc(N)cc43)cc2c1 (stereo not given) | 0.0882 µM | 0.406 µM | 0.375 µM | > 50.4 µM | > 31.6 µM | > 100 µM | > 86.9 µM | 0.376 µM | > 31.6 µM | > 100 µM | 0.396 µM | 0.508 µM | 0.631 µM | > 100 µM | 0.601 µM | 0.475 µM | > 100 µM | 0.609 µM | 0.251 µM | 0.501 µM |
| O=C(CCCn1cnc([N+](=O)[O-])n1)NCCn1ccnc1[N+](=O)[O-] | > 100 µM | > 100 µM | > 100 µM | > 100 µM | > 100 µM | > 100 µM | > 100 µM | > 100 µM | > 100 µM | > 100 µM | > 100 µM | > 100 µM | > 100 µM | > 100 µM | > 100 µM | > 100 µM | > 100 µM | > 100 µM | > 100 µM | > 100 µM |
